Format in all cases: in vivo
One assay concerns Agrostis tenuis. Put plainly: Herbicidal early post-emergence action (96-well microtiter plates), AGSTE. To be noted: 1900 g/ha, scored 9 to 12 days after treatment, 100% = plants have died, 0% = like untreated control plants. An excerpt:
(§1) In the examples and tables below, the following abbreviations are used: • Undesired Plants/Weeds: • ABUTH: Abutilon theophrasti • AGSTE: Agrostis tenuis • AMARE Amaranthus retroflexus • ECHCG: Echinochloa crus-galli • LOLRI: Lolium rigidum • MATIN: Matricaria inodora • POAAN: Poa annua • SETVI: Setaria viridis • STEME: Stellaria media A. Herbicidal Early Post-Emergence Action Seeds of monocotyledonous and dicotyledonous weed plants were placed in 96-well microtiter plates in quartz sand and grown in a climatized chamber under controlled growth conditions. 5 to 7 days after sowing, the test plants were treated at the cotyledon stage. The compounds according to the invention, formulated in the form of emulsion concentrates (EC), were applied with a water application rate of the equivalent of 2200 liters per hectare. After the test plants had been left to stand in the climatized chamber for 9 to 12 days under optimum growth conditions, the effect of the preparations was scored visually in comparison to untreated controls. Here, for example, 100% activity=the plants have died, 0% activity=like untreated control plants. Tables A1 to A2 below show the effects of selected compounds of the general formula (I) according to Table 1 above on various harmful plants and an application rate corresponding to 1900 g/ha, which were obtained by the experimental procedure mentioned above.

In assay [1] the test system is Amaranthus retroflexus. Briefly: Herbicidal post-emergence action (greenhouse pots), AMARE. To be noted: 1280 g/ha, visual rating about 3 weeks after treatment vs untreated controls. From the text: In the examples and tables below, the following abbreviations are used: • Undesired Plants/Weeds: • ABUTH: Abutilon theophrasti • AGSTE: Agrostis tenuis • AMARE Amaranthus retroflexus • ECHCG: Echinochloa crus-galli • LOLRI: Lolium rigidum • MATIN: Matricaria inodora • POAAN: Poa annua • SETVI: Setaria viridis • STEME: Stellaria media A. Herbicidal Early Post-Emergence Action Seeds of mono- and dicotyledonous weed plants were placed in plastic pots in sandy loam soil (doubly sown with in each case one species of mono- or dicotyledonous weed plants per pot), covered with soil and cultivated in a greenhouse under controlled growth conditions. 2 to 3 weeks after sowing, the test plants were treated at the one-leaf stage. The compounds of the invention, formulated in the form of wettable powders (WP) or as emulsion concentrates (EC), were applied onto the green parts of the plants as aqueous suspension or emulsion with addition of 0.5% additive at a water application rate of 600 liters per hectare (converted). After the test plants had been kept in the greenhouse under optimum growth conditions for about 3 weeks, the activity of the preparations was rated visually in comparison to untreated controls. For example, 100% activity=the plants have died, 0% activity=like untreated control plants. Tables B1-B8 below show the effects of selected compounds of the general formula (I) according to Table 1 above on various harmful plants and an application rate corresponding to 1280 g/ha, which were obtained by the experimental procedure mentioned above.

Another assay deals with Setaria viridis. Put plainly: Herbicidal pre-emergence action (greenhouse pots), SETVI. Conditions: 1280 g/ha, visual scoring after about 3 weeks vs untreated controls. From the text:
(§2) In the examples and tables below, the following abbreviations are used: • Undesired Plants/Weeds: • ABUTH: Abutilon theophrasti • AGSTE: Agrostis tenuis • AMARE Amaranthus retroflexus • ECHCG: Echinochloa crus-galli • LOLRI: Lolium rigidum • MATIN: Matricaria inodora • POAAN: Poa annua • SETVI: Setaria viridis • STEME: Stellaria media A. Herbicidal Early Post-Emergence Action Seeds of mono- and dicotyledonous weed plants were placed in plastic pots in sandy loam soil (doubly sown with one species each of mono- or dicotyledonous weed plants per pot) and covered with soil. The compounds of the invention, formulated in the form of wettable powders (WP) or as emulsion concentrates (EC), were then applied onto the surface of the covering soil as aqueous suspension or emulsion with addition of 0.5% additive at a water application rate of 600 liters per hectare (converted). After the treatment, the pots were placed in a greenhouse and kept under good growth conditions for the test plants. After about 3 weeks, the effect of the preparations was scored visually in comparison with untreated controls as percentages. For example, 100% activity=the plants have died, 0% activity=like untreated control plants. Tables C1-C8 below show the effects of selected compounds of the general formula (I) according to Table 1 above on various harmful plants and an application rate corresponding to 1280 g/ha, which were obtained by the experimental procedure mentioned above.

Assay [2] deals with Amaranthus retroflexus. Put plainly: Herbicidal pre-emergence action (greenhouse pots), AMARE. To be noted: 1280 g/ha, visual scoring after about 3 weeks vs untreated controls.
From the text: as §2

The next assay relates to Stellaria media. Put plainly: Herbicidal pre-emergence action (greenhouse pots), STEME. To be noted: 1280 g/ha, visual scoring after about 3 weeks vs untreated controls.
From the text: as §2

Assay [3] concerns Poa annua. Put plainly: Herbicidal early post-emergence action (96-well microtiter plates), POAAN. Conditions: 1900 g/ha, scored 9 to 12 days after treatment, 100% = plants have died, 0% = like untreated control plants.
From the text: as §1

The subject of assay [4] is Poa annua. Put plainly: Herbicidal pre-emergence action (greenhouse pots), POAAN. Conditions: 1280 g/ha, visual scoring after about 3 weeks vs untreated controls.
From the text: as §2

As for `N#Cc1cccc(Nc2ncccn2)c1Oc1ccccc1F` [Example 1-246, 2-(2-Fluorophenoxy)-3-(pyrimidin-2-ylamino)benzonitrile], the “AGSTE (herbicidal activity, scored visually in comparison to untreated controls)” value (shortened to “AGSTE”) in the assay on Agrostis tenuis was 80%. Also, the “herbicidal activity AMARE” value in the assay with Amaranthus retroflexus [1] and with Amaranthus retroflexus [2] was 100% throughout. Besides, the “herbicidal activity SETVI” value in the assay on Setaria viridis is on record as 100%. The “herbicidal activity STEME” value in the assay on Stellaria media came to 100%.
For `N#Cc1cccc(Nc2ccc(Cl)cn2)c1Oc1ccc(F)c(F)c1` [Example 1-129], the “AGSTE” value in the assay with Agrostis tenuis turned out to be 100%. Besides, the “herbicidal activity AMARE” value with Amaranthus retroflexus [1] was found to be 100%. Moreover, the “herbicidal activity SETVI” value in the assay on Setaria viridis is given as 90%. Besides, in the assay with Stellaria media, the “herbicidal activity STEME” value is given as 90%.
`N#Cc1cccc(Nc2ccc(Br)cn2)c1Oc1ccc(F)c(F)c1` [Example 1-144]: the “AGSTE” value in the assay on Agrostis tenuis is 100%. The “POAAN (herbicidal activity, scored visually in comparison to untreated controls)” value with Poa annua [3] came out at 100%.
On to `CSc1cccc(Nc2ncc(Cl)cn2)c1Oc1ccc(F)cc1` [Example 1-328], for which the “AGSTE” value in the assay on Agrostis tenuis was found to be 80%. Besides, the “POAAN (herbicidal activity, scored visually in comparison to untreated controls)” value in the assay with Poa annua [3] is 80%.
As for `Fc1ccc(Oc2c(F)cccc2Nc2ccc(Cl)cn2)cc1` [Example 1-40], the “AGSTE” value in the assay on Agrostis tenuis stood at 80%. Besides, in the assay on Poa annua [3], the “POAAN (herbicidal activity, scored visually in comparison to untreated controls)” value is listed as 80%.
Take `N#Cc1cccc(Nc2ncc(Cl)cn2)c1Oc1ccccc1F` [Example 1-284]: in the assay on Agrostis tenuis, the “AGSTE” value came out at 100%. In addition, the “POAAN (herbicidal activity, scored visually in comparison to untreated controls)” value with Poa annua [3] is recorded as 100%. Further, the “herbicidal activity AMARE” value in the assay on Amaranthus retroflexus [1] and in the assay with Amaranthus retroflexus [2] was 100% each time. Besides, the “herbicidal activity SETVI” value in the assay on Setaria viridis is 100%. Further, in the assay with Stellaria media, the “herbicidal activity STEME” value is reported as 90%.
On to `N#Cc1cccc(Nc2ncc(Cl)cn2)c1Oc1cc(F)ccc1F` [Example 1-290], for which the “AGSTE” value with Agrostis tenuis is given as 80%. Further, the results for the “herbicidal activity AMARE” value with Amaranthus retroflexus [1] and with Amaranthus retroflexus [2] were 100% and 90%, respectively. Besides, the “herbicidal activity POAAN” value with Poa annua [4] was found to be 90%.
With `N#Cc1cccc(Nc2ncccn2)c1Oc1cc(F)ccc1F` [Example 1-252], in the assay on Amaranthus retroflexus [2], the “herbicidal activity AMARE” value is 90%.
In the case of `N#Cc1ccc(Nc2cccc(C#N)c2Oc2ccc(F)cc2)nc1` [Example 1-145], the “POAAN (herbicidal activity, scored visually in comparison to untreated controls)” value in the assay on Poa annua [3] is on record as 80%. Besides, the “herbicidal activity AMARE” value with Amaranthus retroflexus [2] was 90%.
As to `Clc1ccc(Oc2c(Cl)cccc2Nc2ncc(Cl)cn2)cc1` [Example 1-341], the “AGSTE” value in the assay with Agrostis tenuis worked out at 100%. In the assay on Poa annua [3], the “POAAN (herbicidal activity, scored visually in comparison to untreated controls)” value was found to be 100%. Further, in the assay with Amaranthus retroflexus [1], the “herbicidal activity AMARE” value is listed as 100%. Moreover, the “herbicidal activity STEME” value in the assay on Stellaria media is reported as 90%.
In the case of `COc1cccc(Nc2ncc(Cl)cn2)c1Oc1ccc(F)cc1` [Example 1-324], the “AGSTE” value with Agrostis tenuis is given as 100%. Further, in the assay on Poa annua [3], the “POAAN (herbicidal activity, scored visually in comparison to untreated controls)” value turned out to be 80%.
Regarding `Nc1c([N+](=O)[O-])cc(Nc2ncc(Cl)cn2)c(Oc2ccc(F)cc2)c1Cl` [Example 2-101, 2-Chloro-4-(5-chloropyrimidin-2-ylamino)-3-(4-fluorophenoxy)-6-nitroaniline], the “AGSTE” value in the assay with Agrostis tenuis was determined as 100%. For the same compound, the “POAAN (herbicidal activity, scored visually in comparison to untreated controls)” value in the assay with Poa annua [3] is given as 80%.
For the compound `CC(C)Oc1ccc(Nc2cccc(C#N)c2Oc2ccc(F)cc2)nc1` [Example 1-342], the “herbicidal activity AMARE” value in the assay with Amaranthus retroflexus [1] and in the assay on Amaranthus retroflexus [2] was 100% in each case. Besides, the “herbicidal activity SETVI” value in the assay on Setaria viridis worked out at 100%.
As to `CCSc1cccc(Nc2ncc(Cl)cn2)c1Oc1ccc(F)cc1` [Example 1-376], the “AGSTE” value in the assay on Agrostis tenuis worked out at 80%. The “POAAN (herbicidal activity, scored visually in comparison to untreated controls)” value in the assay on Poa annua [3] is listed as 80%.
`N#Cc1cccc(Nc2ccc(Cl)cn2)c1Oc1ccc(F)cc1` [Example 1-124]: the “AGSTE” value in the assay on Agrostis tenuis was 100%. For the same compound, in the assay with Poa annua [3], the “POAAN (herbicidal activity, scored visually in comparison to untreated controls)” value is 100%. For the same compound, the “herbicidal activity AMARE” value in the assay with Amaranthus retroflexus [1] is listed as 100%.
For `Fc1ccc(Oc2c(Br)cccc2Nc2ncc(Cl)cn2)cc1` [Example 1-358], in the assay with Agrostis tenuis, the “AGSTE” value came out at 100%. The “POAAN (herbicidal activity, scored visually in comparison to untreated controls)” value with Poa annua [3] turned out to be 100%.
Consider `N#Cc1cccc(Nc2ncc(Cl)cn2)c1Oc1cc(F)cc(F)c1` [Example 1-292], for which the “AGSTE” value with Agrostis tenuis is 100%. Also, the “POAAN (herbicidal activity, scored visually in comparison to untreated controls)” value with Poa annua [3] was determined as 80%. Also, the “herbicidal activity AMARE” value in the assay on Amaranthus retroflexus [1] and in the assay on Amaranthus retroflexus [2] was 100% throughout. Moreover, the “herbicidal activity SETVI” value in the assay with Setaria viridis came out at 90%.
As to `N#Cc1ccc(Nc2cccc(C#N)c2Oc2ccc(F)c(F)c2)nc1` [Example 1-146], in the assay with Agrostis tenuis, the “AGSTE” value came to 80%.
With `Cc1cccc(Nc2ccc(Cl)cn2)c1Oc1ccc(F)cc1` [Example 1-79], in the assay with Agrostis tenuis, the “AGSTE” value came out at 80%. In addition, the “POAAN (herbicidal activity, scored visually in comparison to untreated controls)” value in the assay with Poa annua [3] came to 100%. Moreover, the “herbicidal activity POAAN” value with Poa annua [4] is reported as 100%.
Turning to `COc1cccc(Oc2c(C#N)cccc2Nc2ncc(F)cn2)c1` [Example 1-281], in the assay with Agrostis tenuis, the “AGSTE” value stood at 100%.
Take `N#Cc1cccc(Nc2ccc(Br)cn2)c1Oc1ccc(F)cc1` [Example 1-143]: in the assay on Agrostis tenuis, the “AGSTE” value is given as 80%.
Regarding `CN(C)c1cccc(Nc2ncc(Cl)cn2)c1Oc1ccc(F)cc1` [Example 1-366], the “AGSTE” value in the assay with Agrostis tenuis worked out at 100%. Moreover, in the assay with Poa annua [3], the “POAAN (herbicidal activity, scored visually in comparison to untreated controls)” value amounted to 80%.
Consider `Cc1ccc(Nc2cccc(C#N)c2Oc2ccc(F)cc2)nc1` [Example 1-149], for which the “AGSTE” value in the assay on Agrostis tenuis is 100%. For the same compound, the “herbicidal activity AMARE” value in the assay with Amaranthus retroflexus [1] and with Amaranthus retroflexus [2] was 100% throughout.
`N#Cc1cccc(Nc2ncc(Cl)cn2)c1Oc1cccc(C(F)(F)F)c1` [Example 1-297]: the “AGSTE” value in the assay on Agrostis tenuis came out at 100%. In the assay on Poa annua [3], the “POAAN (herbicidal activity, scored visually in comparison to untreated controls)” value is 80%. For the same compound, the “herbicidal activity AMARE” value in the assay with Amaranthus retroflexus [1] is 100%. Besides, the “herbicidal activity SETVI” value in the assay on Setaria viridis worked out at 100%.
For `Fc1ccc(Oc2c(Cl)cccc2Nc2ccc(Cl)cn2)cc1` [Example 1-75], the “AGSTE” value in the assay with Agrostis tenuis came out at 100%. In addition, in the assay on Poa annua [3], the “POAAN (herbicidal activity, scored visually in comparison to untreated controls)” value stood at 80%.
As to `N#Cc1cccc(Nc2ncc(F)cn2)c1Oc1cc(F)cc(F)c1` [Example 1-273], the “AGSTE” value with Agrostis tenuis was determined as 80%. Moreover, the “herbicidal activity AMARE” value in the assay on Amaranthus retroflexus [1] and with Amaranthus retroflexus [2] was 100% in each case. For the same compound, the “herbicidal activity SETVI” value in the assay with Setaria viridis was found to be 90%.
With `CNc1cccc(Nc2ncc(Cl)cn2)c1Oc1ccc(F)cc1` [Example 1-365], in the assay with Agrostis tenuis, the “AGSTE” value stood at 100%.

The values above are taken from US12415786B2, “Substituted 2-heteroarylaminobenzenes and the salts thereof and their use as herbicidal agents” (Bayer Aktiengesellschaft, priority 2019, dated 2025).
